One data set relates to HCT-116 cells. The data set can be described thus: MTT assay, cytotoxic activity against HCT-116. The format is cell-based. Conditions: Homo sapiens, average of three separate determinations, SD shown. An excerpt:
(§1) Taking lead compound BC2021-104511-15i, Fruquintinib and Regorafenib as positive controls, the cytotoxic activity against HT-29, HCT-116, COLO-205 and FHC cell lines by MTT assay. Detailed operation could be found in our previous study.
(Formazan colour is commonly taken as a measure of viable cells.)

A short description of data set [1]: MTT assay, cytotoxicity against FHC cells. The class given is cell-based. Conditions: FHC cells (normal colorectal mucosa epithelial cells); human normal colorectal mucosa epithelial cells; average of three separate determinations. How it is done:
In order to investigate the cell selectivity index, the cytotoxicity of potent compounds against human normal colorectal mucosa epithelial cell FHC cells was determined.
as §1

The target of a further data set is T1, FLT3 (Homo sapiens, UniProt P36888).
T1 sequence (P36888 27-993): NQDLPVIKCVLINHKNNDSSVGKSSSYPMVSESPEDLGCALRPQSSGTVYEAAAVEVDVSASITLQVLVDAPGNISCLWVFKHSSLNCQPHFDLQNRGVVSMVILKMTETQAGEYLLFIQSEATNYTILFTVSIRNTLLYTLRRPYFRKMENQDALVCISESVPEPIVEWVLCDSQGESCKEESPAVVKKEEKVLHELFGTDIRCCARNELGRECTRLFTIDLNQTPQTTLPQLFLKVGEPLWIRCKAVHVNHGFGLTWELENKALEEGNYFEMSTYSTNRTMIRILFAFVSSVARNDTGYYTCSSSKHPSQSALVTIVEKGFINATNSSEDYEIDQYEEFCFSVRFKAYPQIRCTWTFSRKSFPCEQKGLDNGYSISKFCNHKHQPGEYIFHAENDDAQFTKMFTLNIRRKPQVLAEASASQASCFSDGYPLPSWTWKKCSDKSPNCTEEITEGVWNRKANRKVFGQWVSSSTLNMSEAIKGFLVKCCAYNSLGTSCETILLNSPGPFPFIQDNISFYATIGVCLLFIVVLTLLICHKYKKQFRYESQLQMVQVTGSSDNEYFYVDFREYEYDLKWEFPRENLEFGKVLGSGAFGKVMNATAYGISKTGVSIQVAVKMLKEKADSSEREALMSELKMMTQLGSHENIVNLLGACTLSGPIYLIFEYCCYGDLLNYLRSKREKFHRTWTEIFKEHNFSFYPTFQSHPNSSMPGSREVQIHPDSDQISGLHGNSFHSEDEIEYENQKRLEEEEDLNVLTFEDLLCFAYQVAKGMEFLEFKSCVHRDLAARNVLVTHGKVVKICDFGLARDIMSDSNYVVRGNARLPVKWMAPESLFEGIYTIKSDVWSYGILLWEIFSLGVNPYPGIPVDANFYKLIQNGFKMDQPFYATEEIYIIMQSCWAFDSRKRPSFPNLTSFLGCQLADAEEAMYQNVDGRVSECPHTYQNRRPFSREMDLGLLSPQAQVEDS
The data set is described as follows: Mobility shift assay, FLT3. The format is biochemical. Conditions: mean of two independent experiments, SD shown. How it is done: (§2) Kinase inhibitory activity against HGFR, MST1R, ABL, PDGFRβ, AXL, FLT3, RET, c-Src, and VEGFR-2 was evaluated by the mobility shift assay. Detailed operation could be found in our previous research.

The subject of another data set is COLO 205 cells. The data set can be described thus: MTT assay, cytotoxic activity against COLO 205. The class given is cell-based.
From the text: as §1

The target of the next data set is ABL (Homo sapiens, UniProt P00519). The data set is described as follows: Mobility shift assay, ABL. The format is biochemical. Conditions: mean of two independent experiments, SD shown. How it is done: as §2
Sequence of ABL (P00519 whole entry): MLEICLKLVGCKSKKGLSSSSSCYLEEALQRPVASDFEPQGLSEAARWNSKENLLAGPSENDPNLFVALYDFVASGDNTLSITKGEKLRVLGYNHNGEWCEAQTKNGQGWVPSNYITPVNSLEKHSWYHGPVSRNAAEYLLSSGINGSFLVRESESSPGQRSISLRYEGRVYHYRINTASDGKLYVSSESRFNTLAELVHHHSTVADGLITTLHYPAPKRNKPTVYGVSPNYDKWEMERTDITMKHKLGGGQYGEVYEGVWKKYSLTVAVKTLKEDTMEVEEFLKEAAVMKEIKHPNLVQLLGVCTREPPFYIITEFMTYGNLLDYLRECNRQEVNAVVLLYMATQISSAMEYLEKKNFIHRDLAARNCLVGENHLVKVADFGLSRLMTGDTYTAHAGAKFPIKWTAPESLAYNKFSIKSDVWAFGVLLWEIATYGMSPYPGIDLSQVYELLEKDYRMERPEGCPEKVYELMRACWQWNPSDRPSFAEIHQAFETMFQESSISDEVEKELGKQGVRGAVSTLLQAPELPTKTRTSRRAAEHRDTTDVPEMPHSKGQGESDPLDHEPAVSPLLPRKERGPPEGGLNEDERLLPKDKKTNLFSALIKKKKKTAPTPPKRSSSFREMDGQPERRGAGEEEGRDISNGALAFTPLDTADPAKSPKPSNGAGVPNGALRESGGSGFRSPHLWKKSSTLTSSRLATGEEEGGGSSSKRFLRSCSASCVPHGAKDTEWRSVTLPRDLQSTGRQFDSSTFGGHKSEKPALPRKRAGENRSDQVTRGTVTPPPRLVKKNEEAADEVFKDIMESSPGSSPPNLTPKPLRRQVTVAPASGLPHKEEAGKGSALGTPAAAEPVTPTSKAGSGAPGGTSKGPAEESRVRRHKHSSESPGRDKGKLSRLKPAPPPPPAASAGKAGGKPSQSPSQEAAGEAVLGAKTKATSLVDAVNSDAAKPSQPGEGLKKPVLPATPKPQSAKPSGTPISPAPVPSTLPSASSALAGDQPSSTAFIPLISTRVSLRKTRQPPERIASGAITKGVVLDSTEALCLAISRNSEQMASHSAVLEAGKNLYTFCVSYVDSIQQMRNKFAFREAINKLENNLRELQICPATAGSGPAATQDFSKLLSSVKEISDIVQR
The next data set has as its target PDGFRβ (Homo sapiens, UniProt P09619). The data set can be described thus: Mobility shift assay, PDGFRβ. Conditions: mean of two independent experiments, SD shown. The class given is biochemical. How it is done:
as §2

The next data set has as its system HT-29 cells. The data set is described as follows: MTT assay, cytotoxic activity against HT-29. The class given is cell-based, human. Conditions: Homo sapiens, HT-29, average of three separate determinations, SD shown.
From the text: as §1

A further data set deals with RET (Homo sapiens, UniProt P07949). The data set can be described thus: Mobility shift assay, RET. The class given is biochemical. Conditions: mean of two independent experiments, SD shown. On the procedure: as §2
Sequence of RET (P07949 29-1114): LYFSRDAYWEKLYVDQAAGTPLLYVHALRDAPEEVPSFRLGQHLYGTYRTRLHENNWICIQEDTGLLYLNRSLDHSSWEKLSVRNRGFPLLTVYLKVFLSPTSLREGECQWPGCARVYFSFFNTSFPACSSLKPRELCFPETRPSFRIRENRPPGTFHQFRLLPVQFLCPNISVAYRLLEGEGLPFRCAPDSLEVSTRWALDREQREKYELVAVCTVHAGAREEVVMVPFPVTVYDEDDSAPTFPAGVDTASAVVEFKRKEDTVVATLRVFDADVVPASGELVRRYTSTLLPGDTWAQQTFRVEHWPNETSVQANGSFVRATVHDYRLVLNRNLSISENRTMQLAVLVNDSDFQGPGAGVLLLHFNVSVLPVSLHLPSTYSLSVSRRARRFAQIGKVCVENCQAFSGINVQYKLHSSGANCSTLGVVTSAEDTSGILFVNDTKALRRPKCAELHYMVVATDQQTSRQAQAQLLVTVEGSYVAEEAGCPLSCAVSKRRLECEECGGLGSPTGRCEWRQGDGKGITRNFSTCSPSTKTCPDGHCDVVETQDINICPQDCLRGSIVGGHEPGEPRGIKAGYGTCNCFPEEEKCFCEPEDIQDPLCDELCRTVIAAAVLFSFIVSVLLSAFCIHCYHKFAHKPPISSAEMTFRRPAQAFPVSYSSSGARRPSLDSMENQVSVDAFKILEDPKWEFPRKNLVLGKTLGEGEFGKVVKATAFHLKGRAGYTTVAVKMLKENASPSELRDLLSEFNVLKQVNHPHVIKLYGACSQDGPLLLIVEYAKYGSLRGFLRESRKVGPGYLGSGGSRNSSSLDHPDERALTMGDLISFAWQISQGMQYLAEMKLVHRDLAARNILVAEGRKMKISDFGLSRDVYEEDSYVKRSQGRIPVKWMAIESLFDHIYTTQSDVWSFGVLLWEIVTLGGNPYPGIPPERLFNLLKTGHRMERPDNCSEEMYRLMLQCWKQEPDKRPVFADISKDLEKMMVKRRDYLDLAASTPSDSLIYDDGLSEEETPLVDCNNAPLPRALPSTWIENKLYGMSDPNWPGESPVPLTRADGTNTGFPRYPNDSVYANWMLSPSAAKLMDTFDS

SMILES strings stand for the structures. Some results are limits rather than exact numbers.

Sequence of PDGFRβ (P09619 33-1106): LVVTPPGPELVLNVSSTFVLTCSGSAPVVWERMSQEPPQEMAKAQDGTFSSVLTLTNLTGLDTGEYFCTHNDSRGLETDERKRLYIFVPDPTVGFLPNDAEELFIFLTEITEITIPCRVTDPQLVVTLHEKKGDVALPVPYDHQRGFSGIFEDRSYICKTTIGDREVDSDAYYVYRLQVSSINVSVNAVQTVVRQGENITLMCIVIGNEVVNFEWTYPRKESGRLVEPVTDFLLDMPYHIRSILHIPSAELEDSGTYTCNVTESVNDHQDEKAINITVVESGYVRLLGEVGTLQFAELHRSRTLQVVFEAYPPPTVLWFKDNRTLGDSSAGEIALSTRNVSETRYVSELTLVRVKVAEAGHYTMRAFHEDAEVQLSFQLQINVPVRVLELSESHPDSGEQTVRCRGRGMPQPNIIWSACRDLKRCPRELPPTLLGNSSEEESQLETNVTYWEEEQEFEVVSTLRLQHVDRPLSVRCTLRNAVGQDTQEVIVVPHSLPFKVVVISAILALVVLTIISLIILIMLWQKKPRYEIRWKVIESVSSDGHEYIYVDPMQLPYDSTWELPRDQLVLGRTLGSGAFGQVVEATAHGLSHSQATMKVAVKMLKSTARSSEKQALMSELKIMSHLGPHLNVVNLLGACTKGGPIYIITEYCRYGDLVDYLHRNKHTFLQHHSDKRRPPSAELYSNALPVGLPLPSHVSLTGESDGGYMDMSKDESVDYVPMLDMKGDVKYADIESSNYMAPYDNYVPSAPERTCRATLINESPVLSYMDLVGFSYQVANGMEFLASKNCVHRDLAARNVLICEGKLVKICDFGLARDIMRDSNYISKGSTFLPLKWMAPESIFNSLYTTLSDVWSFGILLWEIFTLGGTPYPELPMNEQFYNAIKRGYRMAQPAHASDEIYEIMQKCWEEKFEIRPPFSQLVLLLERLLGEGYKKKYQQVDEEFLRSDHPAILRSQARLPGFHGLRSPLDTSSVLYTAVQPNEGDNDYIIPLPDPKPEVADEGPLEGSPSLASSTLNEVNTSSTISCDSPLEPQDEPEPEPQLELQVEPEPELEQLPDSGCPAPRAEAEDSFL

As to `COc1cc2c(Oc3ccc(NC(=O)NN4C(=O)CSC4c4c(F)cccc4F)cc3F)ccnc2cc1OC1CCN(CC(N)=O)CC1` (stereo not shown) [Compound 10a, 2–(4-((4–(4-(3–(2-(2,6-Difluorophenyl)-4-oxothiazolidin-3-yl)ureido)-2-fluorophenoxy)-6-methoxyquinolin-7-yl)oxy)piperidin-1-yl)acetamide], the IC50 is 870 ± 110 nM with HCT-116 cells; more than 10000 nM in data set [1]; 6930 ± 730 nM on FLT3; 110 ± 24 nM in the data set with COLO 205 cells (Homo sapiens, COLO 205, MTT, average of three separate determinations, SD shown); 1680 ± 130 nM on ABL; 1130 ± 120 nM on PDGFRβ. Further, the IC50 is 1300 ± 110 nM in the data set with HT-29 cells and 1270 ± 100 nM at RET. For the same molecule, the “fold more potent than Regorafenib and Fruquintinib against COLO 205” value in the data set on COLO 205 cells (COLO 205 IC50 compared with Regorafenib and Fruquintinib) is on record as “over 90 fold”. Moreover, the “cell selectivity index (FHC IC50 value vs COLO 205 IC50 value)” value in the data set with COLO 205 cells (COLO 205 relative to FHC cells) is listed as “over 90 fold”.

For orientation: IC50 means the concentration needed to halve the response being measured.

The values are drawn from publication PMC9448386, “Discovery of novel conjugates of quinoline and thiazolidinone urea as potential anti-colorectal cancer agent” (Journal of Enzyme Inhibition and Medicinal Chemistry, 2022).
